Source: ChEMBL document CHEMBL4376865, “Discovery and Characterization of 1H-1,2,3-Triazole Derivatives as Novel Prostanoid EP4 Receptor Antagonists for Cancer Immunotherapy” (J Med Chem, 2020)

Experiments:
[1] = target: Prostaglandin E2 receptor EP4 subtype (Mus musculus, UniProt P32240); experiment: Antagonist activity at mouse EP4 expressed in CHO cells coexpressing G16-alpha assessed as intracellular calcium flux preincubated for 15 mins followed by addition of PGE2 by calcium flux assay; assay type: functional, cell-based
Chain of Prostaglandin E2 receptor EP4 subtype (Mus musculus, UniProt P32240) (P32240 whole entry): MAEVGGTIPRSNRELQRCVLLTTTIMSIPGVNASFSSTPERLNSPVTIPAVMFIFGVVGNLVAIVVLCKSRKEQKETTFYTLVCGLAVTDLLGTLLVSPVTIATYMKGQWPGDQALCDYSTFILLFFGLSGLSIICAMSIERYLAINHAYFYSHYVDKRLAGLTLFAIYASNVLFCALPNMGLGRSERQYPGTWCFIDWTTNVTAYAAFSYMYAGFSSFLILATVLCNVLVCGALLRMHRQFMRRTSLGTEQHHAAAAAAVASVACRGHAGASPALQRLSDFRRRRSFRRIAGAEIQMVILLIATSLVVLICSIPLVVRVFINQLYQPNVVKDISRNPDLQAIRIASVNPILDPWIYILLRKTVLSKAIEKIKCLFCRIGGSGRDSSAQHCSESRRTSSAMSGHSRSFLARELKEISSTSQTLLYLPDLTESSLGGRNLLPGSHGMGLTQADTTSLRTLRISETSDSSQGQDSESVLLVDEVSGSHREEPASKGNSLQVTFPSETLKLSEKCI

[2] = target: T1, Prostaglandin E2 receptor EP1 subtype (Homo sapiens, UniProt P34995); experiment: Antagonist activity at human EP1 expressed in CHO cells coexpressing G16-alpha assessed as intracellular calcium flux preincubated for 15 mins followed by addition of PGE2 by calcium flux assay; assay type: functional, cell-based
T1 sequence (P34995 whole entry): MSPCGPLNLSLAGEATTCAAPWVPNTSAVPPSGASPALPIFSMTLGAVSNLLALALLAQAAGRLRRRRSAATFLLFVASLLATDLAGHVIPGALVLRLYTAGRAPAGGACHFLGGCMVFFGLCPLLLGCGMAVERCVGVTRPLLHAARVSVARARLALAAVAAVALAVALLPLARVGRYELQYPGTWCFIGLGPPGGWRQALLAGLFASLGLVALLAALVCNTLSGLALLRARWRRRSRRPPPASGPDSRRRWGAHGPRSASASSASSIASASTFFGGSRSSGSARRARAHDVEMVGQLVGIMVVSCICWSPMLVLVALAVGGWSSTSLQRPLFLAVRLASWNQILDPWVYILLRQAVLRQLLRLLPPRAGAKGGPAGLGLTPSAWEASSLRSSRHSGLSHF

[3] = target: Prostaglandin E2 receptor EP2 subtype (Homo sapiens, UniProt P43116)
Chain of Prostaglandin E2 receptor EP2 subtype (P43116 whole entry): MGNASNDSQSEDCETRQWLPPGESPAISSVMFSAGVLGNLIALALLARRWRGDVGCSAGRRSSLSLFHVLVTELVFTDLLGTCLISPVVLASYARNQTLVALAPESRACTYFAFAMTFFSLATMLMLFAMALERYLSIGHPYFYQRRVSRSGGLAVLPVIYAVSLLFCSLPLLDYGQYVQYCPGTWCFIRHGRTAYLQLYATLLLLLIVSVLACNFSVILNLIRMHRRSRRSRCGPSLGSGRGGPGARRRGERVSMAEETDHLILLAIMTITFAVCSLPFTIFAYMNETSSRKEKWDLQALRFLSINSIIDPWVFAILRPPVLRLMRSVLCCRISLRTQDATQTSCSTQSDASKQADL
Description: Antagonist activity at human EP2 expressed in CHO cells coexpressing G16-alpha assessed as intracellular calcium flux preincubated for 15 mins followed by addition of PGE2 by calcium flux assay

[4] = target: T2, Prostaglandin E2 receptor EP3 subtype (Homo sapiens, UniProt P43115)
T2 sequence (P43115 whole entry): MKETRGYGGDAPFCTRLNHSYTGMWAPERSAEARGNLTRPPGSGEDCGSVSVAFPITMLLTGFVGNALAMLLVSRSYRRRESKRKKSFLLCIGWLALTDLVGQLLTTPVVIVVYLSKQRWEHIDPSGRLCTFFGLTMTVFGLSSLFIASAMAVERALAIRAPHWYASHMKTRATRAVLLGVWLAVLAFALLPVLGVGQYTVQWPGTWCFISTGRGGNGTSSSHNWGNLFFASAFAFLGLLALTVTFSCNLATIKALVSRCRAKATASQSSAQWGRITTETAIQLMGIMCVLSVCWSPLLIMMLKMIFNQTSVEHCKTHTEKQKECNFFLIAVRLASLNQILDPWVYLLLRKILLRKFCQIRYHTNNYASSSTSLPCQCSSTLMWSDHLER
Description: Antagonist activity at human EP3 expressed in CHO cells coexpressing G16-alpha assessed as intracellular calcium flux preincubated for 15 mins followed by addition of PGE2 by calcium flux assay

[5] = Metabolic stability in human liver microsomes assessed as compound remaining at 10 uM incubated for 1 hr
[6] = target: Prostaglandin E2 receptor EP4 subtype (Homo sapiens, UniProt P35408)
Chain of Prostaglandin E2 receptor EP4 subtype (Homo sapiens, UniProt P35408) (P35408 whole entry): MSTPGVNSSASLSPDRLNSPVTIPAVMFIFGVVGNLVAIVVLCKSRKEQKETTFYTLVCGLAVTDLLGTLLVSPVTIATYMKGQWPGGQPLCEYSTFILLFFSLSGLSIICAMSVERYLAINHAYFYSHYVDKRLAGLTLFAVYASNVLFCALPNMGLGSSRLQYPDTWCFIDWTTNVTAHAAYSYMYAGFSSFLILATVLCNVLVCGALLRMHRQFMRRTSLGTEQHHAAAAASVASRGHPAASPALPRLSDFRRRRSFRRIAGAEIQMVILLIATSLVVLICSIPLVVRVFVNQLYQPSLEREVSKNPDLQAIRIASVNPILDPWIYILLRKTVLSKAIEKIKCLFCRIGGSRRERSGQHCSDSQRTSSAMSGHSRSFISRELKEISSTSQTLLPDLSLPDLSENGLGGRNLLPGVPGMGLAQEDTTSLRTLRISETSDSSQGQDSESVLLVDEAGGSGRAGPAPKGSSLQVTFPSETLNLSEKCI
Description: Antagonist activity at human EP4 expressed in CHO cells coexpressing G16-alpha assessed as intracellular calcium flux preincubated for 15 mins followed by addition of PGE2 by calcium flux assay

in vitro [7] = conditions: human, liver microsomes
in vitro [8] = conditions: human, liver microsomes; remark: listed apart in the source
CYP2E1 = CYP2E1 (Homo sapiens, UniProt P05181); experiment: Inhibition of CYP2E1 in human liver microsomes at 20 uM using chlorzoxazone as substrate incubated for 60 mins by HPLC analysis relative to control; assay type: ADME; conditions: probe chlorzoxazone
Chain of CYP2E1 (P05181 whole entry): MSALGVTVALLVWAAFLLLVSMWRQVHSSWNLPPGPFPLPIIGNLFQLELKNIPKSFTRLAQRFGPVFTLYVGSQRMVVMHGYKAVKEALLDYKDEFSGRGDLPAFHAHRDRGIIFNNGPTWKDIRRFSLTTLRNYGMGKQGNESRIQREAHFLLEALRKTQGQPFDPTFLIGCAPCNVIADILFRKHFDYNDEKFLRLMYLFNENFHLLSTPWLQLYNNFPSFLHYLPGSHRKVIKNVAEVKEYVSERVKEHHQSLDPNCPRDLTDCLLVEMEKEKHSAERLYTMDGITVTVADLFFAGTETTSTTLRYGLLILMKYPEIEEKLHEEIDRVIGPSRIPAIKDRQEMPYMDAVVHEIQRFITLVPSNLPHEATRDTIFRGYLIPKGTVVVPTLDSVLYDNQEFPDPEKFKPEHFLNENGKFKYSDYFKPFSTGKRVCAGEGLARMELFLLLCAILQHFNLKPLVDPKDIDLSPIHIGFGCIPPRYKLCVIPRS

CYP2D6 = CYP2D6 (Homo sapiens, UniProt P10635); experiment: Inhibition of CYP2D6 in human liver microsomes at 20 uM using dextromethorphan as substrate incubated for 60 mins by HPLC analysis relative to control; assay type: ADME; conditions: probe dextromethorphan
Chain of CYP2D6 (P10635 whole entry): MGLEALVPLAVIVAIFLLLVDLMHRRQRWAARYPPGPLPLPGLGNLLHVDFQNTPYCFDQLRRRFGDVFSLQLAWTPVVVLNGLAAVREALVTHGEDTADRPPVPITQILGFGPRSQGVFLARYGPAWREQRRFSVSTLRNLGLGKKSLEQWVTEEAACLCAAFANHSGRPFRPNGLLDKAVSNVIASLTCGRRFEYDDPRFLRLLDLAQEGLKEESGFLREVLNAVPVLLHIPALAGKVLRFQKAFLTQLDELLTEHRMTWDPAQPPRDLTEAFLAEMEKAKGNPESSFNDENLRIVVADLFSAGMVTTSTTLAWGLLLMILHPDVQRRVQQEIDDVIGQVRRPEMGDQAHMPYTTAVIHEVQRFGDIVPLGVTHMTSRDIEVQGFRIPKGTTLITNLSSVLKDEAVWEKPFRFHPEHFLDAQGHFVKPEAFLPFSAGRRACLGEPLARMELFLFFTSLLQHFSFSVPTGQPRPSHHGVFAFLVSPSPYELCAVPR

CYP1A2 = target: T3, CYP1A2 (Homo sapiens, UniProt P05177); experiment: Inhibition of CYP1A2 in human liver microsomes at 20 uM using phenacetin as substrate incubated for 30 mins by HPLC analysis relative to control; assay type: ADME; conditions: probe phenacetin
T3 sequence (P05177 whole entry): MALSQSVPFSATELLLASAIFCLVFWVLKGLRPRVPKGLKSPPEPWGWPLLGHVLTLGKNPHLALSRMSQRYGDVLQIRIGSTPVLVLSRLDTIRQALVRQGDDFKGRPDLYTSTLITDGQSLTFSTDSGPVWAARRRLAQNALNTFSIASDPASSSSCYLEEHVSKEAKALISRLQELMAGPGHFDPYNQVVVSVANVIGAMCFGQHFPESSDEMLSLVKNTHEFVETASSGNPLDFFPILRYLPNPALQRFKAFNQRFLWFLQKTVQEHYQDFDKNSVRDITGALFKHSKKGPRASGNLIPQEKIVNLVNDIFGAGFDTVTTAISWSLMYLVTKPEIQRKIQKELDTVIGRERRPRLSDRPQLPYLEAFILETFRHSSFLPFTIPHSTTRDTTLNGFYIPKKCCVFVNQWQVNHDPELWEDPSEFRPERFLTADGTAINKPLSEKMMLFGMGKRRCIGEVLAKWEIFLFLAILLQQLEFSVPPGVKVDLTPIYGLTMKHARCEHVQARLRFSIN

CYP2B6 = target: T4, CYP2B6 (Homo sapiens, UniProt P20813); experiment: Inhibition of CYP2B6 in human liver microsomes at 20 uM incubated for 60 mins by HPLC analysis relative to control; assay type: ADME
T4 sequence (P20813 whole entry): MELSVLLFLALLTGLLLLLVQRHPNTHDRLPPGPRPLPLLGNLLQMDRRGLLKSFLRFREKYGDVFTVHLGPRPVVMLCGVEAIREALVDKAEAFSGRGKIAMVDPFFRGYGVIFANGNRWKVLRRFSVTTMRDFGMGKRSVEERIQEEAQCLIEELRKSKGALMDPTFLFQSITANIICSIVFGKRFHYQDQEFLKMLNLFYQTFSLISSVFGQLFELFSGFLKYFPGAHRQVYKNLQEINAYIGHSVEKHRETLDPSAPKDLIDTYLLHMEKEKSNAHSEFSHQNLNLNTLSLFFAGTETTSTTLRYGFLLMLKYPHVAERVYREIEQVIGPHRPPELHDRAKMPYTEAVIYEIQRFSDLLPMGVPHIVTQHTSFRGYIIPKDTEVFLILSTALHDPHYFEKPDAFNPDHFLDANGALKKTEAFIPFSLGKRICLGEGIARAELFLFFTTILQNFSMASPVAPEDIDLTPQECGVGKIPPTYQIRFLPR

CYP2C9 = CYP2C9 (Homo sapiens, UniProt P11712); experiment: Inhibition of CYP2C9 in human liver microsomes at 20 uM using tolbutamide as substrate incubated for 60 mins by HPLC analysis relative to control; assay type: ADME; conditions: probe tolbutamide
Chain of CYP2C9 (P11712 whole entry): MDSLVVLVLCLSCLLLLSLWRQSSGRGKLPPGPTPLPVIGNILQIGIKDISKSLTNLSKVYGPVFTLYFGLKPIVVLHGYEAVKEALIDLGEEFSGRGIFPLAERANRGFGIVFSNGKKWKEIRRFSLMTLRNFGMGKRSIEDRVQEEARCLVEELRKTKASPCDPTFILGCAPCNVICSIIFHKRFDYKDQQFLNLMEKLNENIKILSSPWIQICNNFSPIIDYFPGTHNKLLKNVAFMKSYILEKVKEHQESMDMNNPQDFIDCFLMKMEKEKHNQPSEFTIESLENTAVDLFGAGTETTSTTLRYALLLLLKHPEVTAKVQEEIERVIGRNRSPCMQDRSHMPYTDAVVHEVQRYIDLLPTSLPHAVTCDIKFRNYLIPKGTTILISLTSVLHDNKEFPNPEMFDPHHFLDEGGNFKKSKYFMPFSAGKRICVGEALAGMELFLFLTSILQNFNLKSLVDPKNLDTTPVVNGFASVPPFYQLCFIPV

Cytochrome P450 3A4 = Cytochrome P450 3A4 (Homo sapiens, UniProt P08684); experiment: Inhibition of CYP3A4 in human liver microsomes at 20 uM using testosterone as substrate incubated for 60 mins by HPLC analysis; assay type: ADME; conditions: 1 h
Chain of Cytochrome P450 3A4 (P08684 whole entry): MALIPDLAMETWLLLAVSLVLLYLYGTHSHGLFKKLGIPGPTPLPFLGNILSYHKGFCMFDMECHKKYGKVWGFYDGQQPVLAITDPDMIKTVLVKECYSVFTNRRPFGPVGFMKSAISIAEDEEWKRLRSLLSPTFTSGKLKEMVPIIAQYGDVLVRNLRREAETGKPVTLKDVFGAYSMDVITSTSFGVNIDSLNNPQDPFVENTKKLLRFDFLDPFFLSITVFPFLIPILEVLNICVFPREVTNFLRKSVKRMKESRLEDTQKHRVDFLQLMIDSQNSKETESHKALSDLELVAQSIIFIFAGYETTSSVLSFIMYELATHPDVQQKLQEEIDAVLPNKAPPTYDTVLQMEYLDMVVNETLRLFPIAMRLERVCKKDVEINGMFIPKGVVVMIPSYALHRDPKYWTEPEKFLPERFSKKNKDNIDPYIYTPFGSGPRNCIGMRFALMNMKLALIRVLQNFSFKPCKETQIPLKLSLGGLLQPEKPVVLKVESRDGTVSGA

Row | Structure (SMILES) | IC50 [1] [nM] | IC50 [2] [µM] | IC50 [3] [µM] | IC50 [4] [µM] | IC50 [6] [nM] | other results
1 | C[C@H](NC(=O)c1c(-c2ccccc2)nnn1CCOc1ccc(F)cc1)c1ccc(C(=O)O)cc1 | 132 | > 10 | > 10 | > 10 | – | –
2 | C[C@H](NC(=O)c1c(-c2ccoc2)nnn1Cc1ccc(C(F)(F)F)cc1)c1ccc(C(=O)O)cc1 | 57.6 | > 10 | > 10 | > 10 | 45.6 | remaining at 1 h, 10 µM [5]: 87.9%; half-life at 1 h, 10 µM (in vitro [7]): > 145 min; microsomal CLint at 1 h, 10 µM (in vitro [8]): < 9.6 µL/min/mg
3 | C/C=C/c1nnn(Cc2ccc(C(F)(F)F)cc2)c1C(=O)N[C@H](C)c1ccc(C(=O)O)cc1 | – | – | – | – | > 1000 | –
4 | C[C@H](NC(=O)c1c(-c2ccccc2)nnn1Cc1ccc(F)cc1)c1ccc(C(=O)O)cc1 | – | – | – | – | 330 | –
5 | C[C@H](NC(=O)c1c(C(F)(F)F)nnn1Cc1ccc(C(F)(F)F)cc1)c1ccc(C(=O)O)cc1 | – | – | – | – | 225 | –
6 | C[C@H](NC(=O)c1c(C2=CCCC2)nnn1Cc1ccc(C(F)(F)F)cc1)c1ccc(C(=O)O)cc1 | 400 | > 10 | > 10 | > 10 | – | –
7 | COc1cccc(Cn2nnc(-c3ccccc3)c2C(=O)N[C@@H](C)c2ccc(C(=O)O)cc2)c1 | – | – | – | – | 96.8 | –
8 | C/C=C/c1nnn(Cc2ccc(C(F)(F)F)cc2)c1C(=O)NCc1ccc(C(=O)O)cc1 | 130 | – | – | – | 10.5 | –
9 | C[C@H](NC(=O)c1c(C(F)(F)F)nnn1CCc1ccc(F)cc1)c1ccc(C(=O)O)cc1 | – | – | – | – | > 10000 | –
10 | C[C@H](NC(=O)c1c(-c2ccccc2)nnn1CCOc1cccc(C(F)(F)F)c1)c1ccc(C(=O)O)cc1 | 135 | > 10 | > 10 | > 10 | – | inhibition at 1 h, 20 µM (CYP2E1): 67%; inhibition at 1 h, 20 µM (CYP2D6): 30%; inhibition at 0.5 h, 20 µM (CYP1A2): 30%; inhibition at 1 h, 20 µM (CYP2B6): 51%; inhibition at 1 h, 20 µM (CYP2C9): 67%; inhibition (INH) (Cytochrome P450 3A4): Not Active
11 | C[C@H](NC(=O)c1nnn(Cc2cccc(C(F)(F)F)c2)c1C(F)(F)F)c1ccc(C(=O)O)cc1 | – | – | – | – | > 10000 | –
12 | COc1ccc(Cn2nnc(-c3ccccc3)c2C(=O)N[C@@H](C)c2ccc(C(=O)O)cc2)cc1 | – | – | – | – | 9.3 | –
13 | C[C@H](NC(=O)c1c(-c2ccccc2)nnn1Cc1ccc(C(F)(F)F)cc1)c1ccc(C(=O)O)cc1 | 906 | > 10 | > 10 | > 10 | 8.5 | remaining at 1 h, 10 µM [5]: 84.9%; half-life at 1 h, 10 µM (in vitro [7]): > 145 min; microsomal CLint at 1 h, 10 µM (in vitro [8]): < 9.6 µL/min/mg
14 | CCCc1c(C(=O)N[C@@H](C)c2ccc(C(=O)O)cc2)nnn1Cc1ccc(C(F)(F)F)cc1 | – | – | – | – | > 10000 | –
15 | Cc1nnn(Cc2ccc(C(F)(F)F)cc2)c1C(=O)N[C@@H](C)c1ccc(C(=O)O)cc1 | – | – | – | – | > 10000 | –
16 | C[C@H](NC(=O)c1cnnn1Cc1ccc(C(F)(F)F)cc1)c1ccc(C(=O)O)cc1 | – | – | – | – | > 10000 | –
